The results in this text go back to patent US20260049101A1, “TOPICAL TREATMENT OF SKIN CANCER USING OLIGOPEPTIDES” (BACOBA AG, priority 2022, published 2026).

The IC50 is the concentration that gives 50% inhibition.

Numbered stars: 1 amine (or outer) side, 2 acyl side, 3 side chain; on linkers, the order of the positions; unused ones are H or OH. Square brackets hold non-standard residues; d marks the D form. Peptide text beside a SMILES is read from it. * marks the point of attachment. NH(2-morpholinoethyl) = C(CN1CCOCC1)N*; X4 = C[C@](N[*:1])(C(=O)[*:2])C(F)(F)F; NH(1-CH2NMe2-cBu) = CN(C)CC1(N*)CCC1; Gly(octyl) = CCCCCCCC[C@H](N)C(=O)O; Oxazole4CO(2-Me) = Cc1nc(C(=O)*)co1; Benzoyl(4-F) = O=C(c1ccc(F)cc1)*; hCha = N[C@@H](CCC1CCCCC1)C(=O)O; Cha = N[C@@H](CC1CCCCC1)C(=O)O; X6 = CC(C)(CN[*:1])C(=O)[*:2]; β3hL = CC(C)C[C@H](N)CC(=O)O; Aib = CC(C)(N)C(=O)O; βAla = NCCC(=O)O

The test has as its system cutaneous squamous cell carcinoma cell line SCC12. In words: In vitro anti-proliferative assay (resazurin) in SCC12. The class given is cell-based. Conditions: SCC12, 72 hours. The source says: Methodology. The cutaneous squamous cell carcinoma cell culture SCC12 was cultivated in keratinocyte-SFM media (KSFM, Cat #17005042, Gibco) supplemented with human recombinant epidermal growth factor 1-53 (EGF 1-53) and bovine pituitary extract (BFE).
Vehicle treated wells were set to 100% viability.
`CC(C)C[C@H](NC(=O)CC(C)(C)NC(=O)[C@H](CC(C)C)NC(=O)[C@H](CCC1CCCCC1)NC(=O)[C@@H]1CCCN1C(=O)c1ccc(F)cc1)C(=O)N[C@@H](CC(C)C)C(=O)NC(C)(C)CC(=O)NC(C)(C)CC(=O)NCCC(=O)NC1(CN(C)C)CCC1` [Compound 21368, (2S)-2-[(2S)-4-cyclohexyl-2-{[(2S)-1-(4-fluorobenzoyl)pyrrolidin-2-yl]formamido}butan-amido]-N-(1-{[(1S)-1-{[(1S)-1-({1-[(1-{[2-({1-[(dimethylamino)methyl]cyclobutyl}carba-moyl)ethyl]carbamoyl}-2-methylpropan-2-yl)carbamoyl]-2-methylpropan-2-yl}carbamoyl)-3-methylbutyl]carbamoyl}-3-methylbutyl]carbamoyl}-2-methylpropan-2-yl)-4-methylpentanamide]: the IC50 was above 10000 nM.
The compound `CC(C)C[C@H](NC(=O)[C@H](CCC1CCCCC1)NC(=O)[C@@H]1CCCN1C(=O)c1ccc(F)cc1)C(=O)NC(C)(C)C(=O)N[C@@H](CC(C)C)C(=O)N[C@@H](CC(C)C)C(=O)NC(C)(C)C(=O)N[C@@](C)(C(=O)NCCC(=O)NC1(CN(C)C)CCC1)C(F)(F)F` [Compound 21359, (2S)-2-[(2S)-4-cyclohexyl-2-{[(2S)-1-(4-fluorobenzoyl)pyrrolidin-2-yl]formamido}butanamido]-N-(1-{[(1S)-1-{[(1S)-1-[(1-{[(1S)-1-{[2-({1-[(dimethylamino)methyl]cyclobutyl}carbamoyl)ethyl]carbamoyl}-2,2,2-trifluoro-1-methylethyl]carbamoyl}-1-methylethyl)carbamoyl]-3-methylbutyl]carbamoyl}-3-methylbutyl]carbamoyl}-1-methylethyl)-4-methylpentanamide] ({Benzoyl(4-F)}-P[hCha]L[Aib]LL[Aib][X4][βAla]-{NH(1-CH2NMe2-cBu)}) yielded an IC50 of 360 nM. This counts as sub-micromolar.
In turn, `CC(C)C[C@H](NC(=O)[C@H](CCC1CCCCC1)NC(=O)[C@@H]1CCCN1C(=O)c1ccc(F)cc1)C(=O)NC(C)(C)C(=O)N[C@@H](CC(C)C)C(=O)N[C@@H](CC(C)C)C(=O)NC(C)(C)C(=O)NC(C)(C)C(=O)NCCC(=O)NCCN1CCOCC1` [Compound 8341, (2S)-2-[(2S)-4-cyclohexyl-2-{[(2S)-1-(4-fluorobenzoyl)pyrrolidin-2-yl]formamido}butanamido]-4-methyl-N-(1-methyl-1-{[(1S)-3-methyl-1-{[(1S)-3-methyl-1-{[1-methyl-1-({1-methyl-1-[(2-{[2-(morpholin-4-yl)ethyl]carbamoyl}ethyl)carbamoyl]ethyl}carbamoyl)ethyl]carbamoyl}butyl]carbamoyl}butyl]carbamoyl}ethyl)pentanamide] ({Benzoyl(4-F)}-P[hCha]L[Aib]LL[Aib][Aib][βAla]-{NH(2-morpholinoethyl)}) gave an IC50 of 1020 nM. Compared with the last compound, the IC50 is about 2.8-fold higher.
The same measure for `Cc1nc(C(=O)N2CCC[C@H]2C(=O)N[C@@H](Cc2ccccc2)C(=O)N[C@@H](CC(C)C)C(=O)NC(C)(C)C(=O)N[C@@H](CC(C)C)C(=O)N[C@@H](CC(C)C)C(=O)NC(C)(C)C(=O)NC(C)(C)C(=O)NCCC(=O)NC2(CN(C)C)CCC2)co1` [Compound 6328, (2S)—N-(1-{[(1S)-1-{[(1S)-1-({1-[(1-{[2-({1-[(dimethylamino)methyl]cyclobutyl}carbamoyl)ethyl]carbamoyl}-1-methylethyl)carbamoyl]-1-methylethyl}carbamoyl)-3-methylbutyl]carbamoyl}-3-methylbutyl]carbamoyl}-1-methylethyl)-4-methyl-2-[(2S)-2-{[(2S)-1-(2-methyl-1,3-oxazole-4-carbonyl)pyrrolidin-2-yl]formamido}-3-phenylpropanamido]pentanamide] ({Oxazole4CO(2-Me)}-PFL[Aib]LL[Aib][Aib][βAla]-{NH(1-CH2NMe2-cBu)}): 1660 nM.
The same measure for `CC(C)C[C@@H](CC(=O)NC(C)(C)C(=O)N[C@@H](CC(C)C)C(=O)N[C@@H](CC(C)C)C(=O)NC(C)(C)C(=O)NC(C)(C)C(=O)NCCC(=O)NC1(CN(C)C)CCC1)NC(=O)[C@H](CCC1CCCCC1)NC(=O)[C@@H]1CCCN1C(=O)c1ccc(F)cc1` [Compound 21314, (3S)-3-[(2S)-4-cyclohexyl-2-{[(2S)-1-(4-fluorobenzoyl)pyrrolidin-2-yl]formamido}butan-amido]-N-(1-{[(1S)-1-{[(1S)-1-({1-[(1-{[2-({1-[(dimethylamino)methyl]cyclobutyl}carba-moyl)ethyl]carbamoyl}-1-methylethyl)carbamoyl]-1-methylethyl}carbamoyl)-3-methylbutyl]carbamoyl}-3-methylbutyl]carbamoyl}-1-methylethyl)-5-methylhexanamide] ({Benzoyl(4-F)}-P[hCha][β3hL][Aib]LL[Aib][Aib][βAla]-{NH(1-CH2NMe2-cBu)}): 324 nM; for `CC(C)C[C@H](NC(=O)[C@H](CC(C)C)NC(=O)C(C)(C)NC(=O)[C@H](CC(C)C)NC(=O)[C@H](CCC1CCCCC1)NC(=O)[C@@H]1CCCN1C(=O)c1ccc(F)cc1)C(=O)NC(C)(C)C(=O)NCC(C)(C)C(=O)NCCC(=O)NC1(CN(C)C)CCC1` [Compound 21164, (2S)-2-[(2S)-4-cyclohexyl-2-{[(2S)-1-(4-fluorobenzoyl)pyrrolidin-2-yl]formamido}butan-amido]-N-(1-{[(1S)-1-{[(1S)-1-({1-[(2-{[2-({1-[(dimethylamino)methyl]cyclobutyl}carba-moyl)ethyl]carbamoyl}-2,2-dimethylethyl)carbamoyl]-1-methylethyl}carbamoyl)-3-methylbutyl]carbamoyl}1-3-methylbutyl]carbamoyl}-1-methylethyl)-4-methylpentanamide] ({Benzoyl(4-F)}-P[hCha]L[Aib]LL[Aib][X6][βAla]-{NH(1-CH2NMe2-cBu)}): 712 nM.
`COc1ccc(-c2ccc(OC[C@H](NC(=O)[C@@H]3CCCN3C(=O)c3ccc(F)cc3)C(=O)N[C@@H](CC(C)C)C(=O)NC(C)(C)C(=O)N[C@@H](CC(C)C)C(=O)N[C@@H](CC(C)C)C(=O)NC(C)(C)C(=O)NC(C)(C)C(=O)NCCC(=O)NC3(CN(C)C)CCC3)cc2)cc1` [Compound 7824, (2S)—N-{1-[(1-{[2-({1-[(dimethylamino)methyl]cyclobutyl}carbamoyl)ethyl]carbamoyl}-1-methylethyl)carbamoyl]-1-methylethyl}-2-[(2S)-2-{2-[(2S)-2-[(2S)-2-{[(2S)-1-(4-fluorobenzoyl)pyrrolidin-2-yl]formamido}-3-({4′-methoxy-[1,1′-biphenyl]-4-yl}oxy)propanamido]-4-methylpentanamido]-2-methylpropanamido}-4-methylpentanamido]-4-methylpentanamide] came in with an IC50 of 375 nM.
The compound `CCCCCCCC[C@H](NC(=O)[C@@H]1CCCN1C(=O)c1coc(C)n1)C(=O)N[C@@H](CC(C)C)C(=O)NC(C)(C)C(=O)N[C@@H](CC(C)C)C(=O)N[C@@H](CC(C)C)C(=O)NC(C)(C)C(=O)NC(C)(C)C(=O)NCCC(=O)NC1(CN(C)C)CCC1` [Compound 6253, (2S)—N-[(1S)-1-[(1-{[(1S)-1-{[(1S)-1-({1-[(1-{[2-({1-[(dimethylamino)methyl]cyclobutyl}carbamoyl)ethyl]carbamoyl}-1-methylethyl)carbamoyl]-1-methylethyl}carbamoyl)-3-methylbutyl]carbamoyl}-3-methylbutyl]carbamoyl}-1-methylethyl)carbamoyl]-3-methylbutyl]-2-{[(2S)-1-(2-methyl-1,3-oxazole-4-carbonyl)pyrrolidin-2-yl]formamido}decanamide] ({Oxazole4CO(2-Me)}-P[Gly(octyl)]L[Aib]LL[Aib][Aib][βAla]-{NH(1-CH2NMe2-cBu)}) registered an IC50 of 140 nM.
The same measure for `Cc1nc(C(=O)N2CCC[C@H]2C(=O)N[C@@H](CC2CCCCC2)C(=O)N[C@@H](CC(C)C)C(=O)NC(C)(C)C(=O)N[C@@H](CC(C)C)C(=O)N[C@@H](CC(C)C)C(=O)NC(C)(C)C(=O)NC(C)(C)C(=O)NCCC(=O)NC2(CN(C)C)CCC2)co1` [Compound 7059, (2S)-2-[(2S)-3-cyclohexyl-2-{[(2S)-1-(2-methyl-1,3-oxazole-4-carbonyl)pyrrolidin-2-yl]formamido}propanamido]-N-(1-{[(1S)-1-{[(1S)-1-({1-[(1-{[2-({1-[(dimethylamino)methyl]cyclobutyl}carbamoyl)ethyl]carbamoyl}-1-methylethyl)carbamoyl]-1-methylethyl}carbamoyl)-3-methylbutyl]carbamoyl}-3-methylbutyl]carbamoyl}-1-methylethyl)-4-methylpentanamide] ({Oxazole4CO(2-Me)}-P[Cha]L[Aib]LL[Aib][Aib][βAla]-{NH(1-CH2NMe2-cBu)}): 500 nM; for `CC(C)C[C@H](NC(=O)[C@H](CC(C)C)NC(=O)[C@](C)(NC(=O)[C@H](CC(C)C)NC(=O)[C@H](CCC1CCCCC1)NC(=O)[C@@H]1CCCN1C(=O)c1ccc(F)cc1)C(F)(F)F)C(=O)NC(C)(C)C(=O)NC(C)(C)C(=O)NCCC(=O)NC1(CN(C)C)CCC1` [Compound 21362, (2S)-2-[(2S)-4-cyclohexyl-2-{[(2S)-1-(4-fluorobenzoyl)pyrrolidin-2-yl]formamido}butanamido]-N-[(1S)-1-{[(1S)-1-{[(1S)-1-({1-[(1-{[2-({1-[(dimethylamino)methyl]cyclobutyl}carbamoyl)ethyl]carbamoyl}-1-methylethyl)carbamoyl]-1-methylethyl}carbamoyl)-3-methylbutyl]carbamoyl}-3-methylbutyl]carbamoyl}-2,2,2-trifluoro-1-methylethyl]-4-methylpentanamide] ({Benzoyl(4-F)}-P[hCha]L[X4]LL[Aib][Aib][βAla]-{NH(1-CH2NMe2-cBu)}): 717 nM.
